Data taken from patent US20140212401A1, “USE OF SYNTHETIC AND BIOLOGICAL FUNGICIDES IN COMBINATION FOR CONTROLLING HARMFUL FUNGI” (Bayer CropScience LP, priority 2009, published 2014).

Tests used:
Plasmopara viticola = test: Example 3: inoculated vine grapes, spray treatments, visual % infection of racemes and leaves, severity and frequency; conditions: Dithianon (DELAN WG 525 g/ha) applications ABCDEFGHI
Protocol: (§1) Evaluation was carried out by visually determining the infected leaf areas in %.
The test plants were inoculated with an aqueous spore suspension of Plasmopara viticola. […] Another part was sprayed both with dithianon and B. subtilis strain QST713. 67 and 73 days after the first treatment (4 or 10 days after last treatment), the extent of the development of the disease was determined visually in % infection of the racemes. 73 days after the first treatment (10 days after last treatment), the severity and the frequency of the infection on the racemes were determined visually [%]. 87 days after the first treatment (14 days after last treatment), the extent of the development of the disease was determined visually in % infection of the leaves.

[1] = tested on: Venturia inequalis (VENTIN); test: Example 18: field trial apple cv. Rubinette, natural infection, percent infected leaf area
Protocol: The trial was conducted under field conditions. Established apple plants (cv. Rubinette) were grown under standard conditions with adequate supply of water and nutrients. The application was repeated 6 to 10 times (see below) with 7-14 days intervals applying single products or product mixtures. No other products or compounds were applied for pathogen control. […] VENTIN infection occurred naturally. Disease incidences were evaluated 6 days after 10th application (6 DAT(10)). Disease levels observed were rated in percent infected leaf area in the respective plot given as % attack.

[2] = tested on: Plasmopara viticola (PLASVI); test: Example 17: field trial grapevine cv. Müller-Thurgau, natural infection, percent infected leaf area and clusters; conditions: for Attacked Leaf Area/Clusters 10 DAA(7): percent infected clusters; for Attacked Leaf Area/Clusters 4 DAA(9): percent infected leaf area
Protocol: The trial was conducted under field conditions. Established grapevine plants (cv. Müller-Thurgau) were grown under standard conditions with adequate supply of water and nutrients.
The application was repeated 4 to 9 times (see below) with 7-14 days intervals applying single products. No other products or compounds were applied for pathogen control. […] For comparison, a part of the plants was sprayed with dithianon alone (used as the commercial product DELAN®, Bayer CropScience; 0.75 kg/ha). […] Another part was sprayed both with dithianon and B. subtilis strain QST713. PLASVI infection occurred naturally. Disease incidences were evaluated 10 days after 7th application (10 DAA(7)) and 4 days after 9th application (4 DAA(9)). Disease levels observed were rated in percent infected leaf area (4 DAA(9)) and in percent infected clusters (10 DAA(7)) in the respective plot given as % attack.

[3] = tested on: Botrytis cinirea (BOTRCI); test: Example 16: field trial grapevine cv. Müller-Thurgau, natural infection, percent infected clusters
Protocol: The trial was conducted under field conditions. Established grapevine plants (cv. Müller-Thurgau) were grown under standard conditions with adequate supply of water and nutrients. The application was repeated 4 to 9 times (see below) with 7-14 days intervals applying single products. No other products or compounds were applied for pathogen control. […] For comparison, a part of the plants was sprayed with dithianon alone (used as the commercial product DELAN®, Bayer CropScience; 0.75 kg/ha). […] BOTRCI infection occurred naturally. Disease incidences were evaluated 21 days after 9th application (21 DAT(9)). Disease levels observed were rated in percent infected clusters in the respective plot given as % attack.

Monilinia laxa = test: Example 7: inoculated stonefruit, spray treatments, visual % infection of plant
Protocol: as §1
Stonefruit was grown under standard conditions with adequate supply of water and nutrients. The test plants were inoculated with an aqueous spore suspension of Monilinia laxa. […] Another part was sprayed both with boscalid and B. subtilis strain QST713. 5 and 11 days after the first treatment (0 or 6 days after last treatment), the extent of the development of the disease was determined visually in % infection of the plant.

Botrytis cinerea = test: Example 1: inoculated vine grapes cv. Riesling, spray treatments, visual % infection of racemes
Protocol: as §1
Vine grapes of the cultivar “Riesling” were grown under standard conditions with adequate supply of water and nutrients. The test plants were inoculated with an aqueous spore suspension of Botrytis cinerea. […] For comparison, a part of the plants was sprayed with boscalid alone (used as the commercial product CANTUS®, BASF; dose rate per treatment: 1.2 kg/ha; diluted with water to 800 L/ha). […] 95 and 100 days after the first treatment (25 or 30 days after last treatment), the extent of the development of the disease was determined visually in % infection of the racemes.

Bremia lactucae = test: Example 23: inoculated lettuce, spray treatments, visual % infection of plant; conditions: Boscalid (CANTUS 1 kg/ha) applications AB
Protocol: as §1
The test plants were inoculated with an aqueous spore suspension of Bremia lactucae. […] For comparison, a part of the plants was sprayed with boscalid alone (used as the commercial product CANTUS®, BASF; dose rate per treatment: 1 kg/ha; diluted with water to 500 L/ha). […] 7 days after the last treatment, the extent of the development of the disease was determined visually in % infection of the plant.

Sclerotinia sclerotiorum = test: Example 11: inoculated beans, spray treatments, visual % infection of plants; conditions: Boscalid (CANTUS 1.0 kg/ha) application A
Protocol: as §1
Beans were cultivated and grown under standard conditions with adequate supply of water and nutrients. The test plants were inoculated with an aqueous spore suspension of Sclerotinia sclerotiorum. […] For comparison, a part of the plants was sprayed with boscalid alone (used as the commercial product CANTUS®, BASF; dose rate per treatment: 1.0 kg/ha; diluted with water to 500 L/ha). […] 28 and 35 days after the first treatment (0 or 7 days after last treatment), the extent of the development of the disease was determined visually in % infection of the plants.

Cercospora beticola = test: Example 8: inoculated sugar beets, spray treatments, visual % infection of plant
Protocol: as §1
Sugar beets were cultivated and grown under standard conditions with adequate supply of water and nutrients. The test plants were inoculated with an aqueous spore suspension of Cercospora beticola. […] For comparison, a part of the plants was sprayed with pyraclostrobin alone (used as the commercial product HEADLINE®, BASF; dose rate per treatment: 0.6 L/ha; diluted with water to 400 L/ha). […] 46 and 53 days after the first treatment (7 or 14 days after last treatment), the extent of the development of the disease was determined visually in % infection of the plant.

[4] = tested on: Pseudoperonospora cubensis; test: Example 4: inoculated cucurbits, spray treatments, visual % infection of leaves; format: in vivo; conditions: 28 days after first treatment
Text: The results are compiled in Table 4 below. [table]

[5] = tested on: Erysiphe necator (UNCINE); test: Example 15: field trial grapevine cv. Müller-Thurgau, natural infection, percent infected clusters
Protocol: The trial was conducted under field conditions. Established grapevine plants (cv. Müller-Thurgau) were grown under standard conditions with adequate supply of water and nutrients. The application was repeated 3 to 6 times (see below) with 14 days intervals applying single products. No other products or compounds were applied for pathogen control. […] For comparison, a part of the plants was sprayed with metrafenone alone (used as the commercial product VIVANDO®, BASF; 0.2 L/ha). […] UNCINE infection occurred naturally. Disease incidences were evaluated 6 days after 5th application (6 DAT(5)) and 15 days after 6th application (15 DAT(6)). Disease levels observed were rated in percent infected clusters in the respective plot given as % attack.

Leveillula taurica = test: Example 10: inoculated peppers, spray treatments, visual % infection of leaves; conditions: Metrafenone (VIVANDO 0.2 L/ha) applications AB
Protocol: as §1
The test plants were inoculated with an aqueous spore suspension of Leveillula taurica. […] For comparison, a part of the plants was sprayed with metrafenone alone (used as the commercial product VIVANDO®, BASF; dose rate per treatment: 0.2 L/ha; diluted with water to 800 L/ha). […] 35 and 42 days after the first treatment (7 or 14 days after last treatment), the extent of the development of the disease was determined visually in % infection of the leaves.

Uncinula necator [6] = test: Example 13: inoculated grapes, spray treatments, visual % infection of raceme and leaves; format: in vivo
Text: The results are compiled in Table 13 below.

Sphaerotheca fuliginea [7] = test: Example 9: inoculated melons, spray treatments, visual % infection of plant
Protocol: as §1
Melons were cultivated and grown under standard conditions with adequate supply of water and nutrients. The test plants were inoculated with an aqueous spore suspension of Sphaerotheca fuliginea. […] For comparison, a part of the plants was sprayed with metrafenone alone (used as the commercial product VIVANDO®, BASF; dose rate per treatment: 0.2 L/ha; diluted with water to 500 L/ha). […] 27 and 34 days after the first treatment (1 or 8 days after last treatment), the extent of the development of the disease was determined visually in % infection of the plant.

Sphaerotheca fuliginea [8] = test: Example 12: inoculated cucurbits, spray treatments, visual % infection of upperside of leaves; format: in vivo; conditions: 38 days after first treatment, Metrafenone (VIVANDO 0.2 L/ha) applications ABC
Text: The results are compiled in Table 12 below.

Sphaerotheca fuliginea [9] = test: Example 27: inoculated cucumbers, spray treatments, visual % infection of leaves; conditions: 38 days after first treatment; Metrafenone (VIVANDO 0.3 L/ha) applications ABC
Protocol: as §1
Cucumbers were cultivated and grown under standard conditions with adequate supply of water and nutrients. The test plants were inoculated with an aqueous spore suspension of Sphaerotheca fuliginea. […] For comparison, a part of the plants was sprayed metrafenone alone (used as the commercial product VIVANDO®, BASF; dose rate per treatment: 0.3 L/ha; diluted with water to 500 L/ha). […] 38 days after the first treatment, the extent of the development of the disease was determined visually in % infection of the leaves.

Uncinula necator [10] = test: Example 2: inoculated vine grapes, spray treatments, visual % infection of racemes
Protocol: Vine grapes were grown under standard conditions with adequate supply of water and nutrients. The test plants were inoculated with an aqueous spore suspension of Uncinula necator. […] For comparison, a part of the plants was sprayed with metrafenone alone (used as the commercial product VIVANDO®, BASF; dose rate per treatment: 0.02 Vol.-%; diluted with water to 800 L/ha). […] 85 and 91 days after the first treatment (15 or 21 days after last treatment), the extent of the development of the disease was determined visually in % infection of the racemes.

Erysiphe necator = test: Example 29: inoculated grapes, spray treatments, visual % infection of clusters; conditions: Metrafenone (VIVANDO 0.27 L/ha) applications ABCD
Protocol: Grapes were grown under standard conditions with adequate supply of water and nutrients. The test plants were inoculated with an aqueous spore suspension of Erysiphe necator. […] For comparison, a part of the plants was sprayed with metrafenone alone (used as the commercial product VIVANDO®, BASF; dose rate per treatment: 0.27 L/ha; diluted with water to 800 L/ha). […] 11 days after the 6th application, the extent of the development of the disease was determined visually in % infection of the clusters.

[11] = Dithianon (DELAN 0.75 kg/ha) applications ABCD
[12] = Dithianon (DELAN 0.75 kg/ha) applications ABCDEFGHI
[13] = Boscalid application A (pyraclostrobin/boscalid mixture PRISTINE 0.66 g/ha)
[14] = Boscalid applications AB (pyraclostrobin/boscalid mixture PRISTINE 0.66 g/ha)
[15] = Boscalid (CANTUS 1.2 kg/ha) applications AB
[16] = Boscalid (CANTUS 1.2 kg/ha) applications ABC
[17] = Pyraclostrobin (HEADLINE 0.6 L/ha) application A
[18] = Pyraclostrobin (HEADLINE 0.6 L/ha) applications AB
[19] = Pyraclostrobin (HEADLINE 0.6 L/ha) applications ABC
[20] = Metrafenone (VIVANDO 0.2 L/ha) applications ABC
[21] = Metrafenone (VIVANDO 0.2 L/ha) applications ABCDEF
[22] = Metrafenone (VIVANDO 0.2 L/ha) applications ABCDE
[23] = Metrafenone (VIVANDO 0.2 L/ha) applications ABCDEFG
[24] = Metrafenone (VIVANDO 0.2 L/ha) application A
[25] = Metrafenone (VIVANDO 0.2 L/ha) applications AB
[26] = Metrafenone (VIVANDO 0.02 Vol.-%) applications ABC
[27] = Metrafenone (VIVANDO 0.02 Vol.-%) applications ABCD

N#Cc1sc2c(=O)c3ccccc3c(=O)c=2sc1C#N [Dithianon, dithianon]
Attack on Leaves 87 DAT (Plasmopara viticola): 25% | Attack on Raceme 67 DAT (Plasmopara viticola): 34% | Attack on Raceme 73 DAT (Plasmopara viticola): 48% | Frequency 73 DAT (Plasmopara viticola; infection on racemes): 37% | Severity 73 DAT (Plasmopara viticola; infection on racemes): 7.5% | Attacked Leaf Area 6 DAT10 ([1]; Dithianon (DELAN 0.75 kg/ha) applications ABCDEF): 12% | Attacked Leaf Area 6 DAT10 ([1]; Dithianon (DELAN 0.75 kg/ha) applications ABCDEFGHIJ): 7.3% | Attacked Leaf Area/Clusters 10 DAA(7) [2, 11]: 30% | Attacked Leaf Area/Clusters 10 DAA(7) [2, 12]: 25% | Attacked Leaf Area/Clusters 4 DAA(9) [2, 11]: 11% | Attacked Leaf Area/Clusters 4 DAA(9) [2, 12]: 7.5% | Attacked Clusters 21 DAT(9) [3, 11]: 12% | Attacked Clusters 21 DAT(9) [3, 12]: 15%

O=C(Nc1ccccc1-c1ccc(Cl)cc1)c1cccnc1Cl [Boscalid, boscalid]
Attack on Plant 5 DAT (Monilinia laxa; [13]): 1.8% | Attack on Plant 11 DAT (Monilinia laxa; [13]): 36% | Attack on Plant 5 DAT (Monilinia laxa; [14]): 1.8% | Attack on Plant 11 DAT (Monilinia laxa; [14]): 29% | Attack on Raceme 95 DAT (Botrytis cinerea; [15]): 35% | Attack on Raceme 100 DAT (Botrytis cinerea; [15]): 44% | Attack on Raceme 95 DAT (Botrytis cinerea; [16]): 28% | Attack on Raceme 100 DAT (Botrytis cinerea; [16]): 36% | Attack on Plant 7 DALT (Bremia lactucae): 14% | Attack on Plant 28 DAT (Sclerotinia sclerotiorum): 30% | Attack on Plant 35 DAT (Sclerotinia sclerotiorum): 53%

COC(=O)N(OC)c1ccccc1COc1ccn(-c2ccc(Cl)cc2)n1 [Pyraclostrobin, pyraclostrobin]
Attack on Plant 46 DAT (Cercospora beticola; [17]): 11% | Attack on Plant 53 DAT (Cercospora beticola; [17]): 17% | Attack on Plant 46 DAT (Cercospora beticola; [18]): 4.7% | Attack on Plant 53 DAT (Cercospora beticola; [18]): 5.7% | Attack on Plant 46 DAT (Cercospora beticola; [19]): 2.7% | Attack on Plant 53 DAT (Cercospora beticola; [19]): 3.7%

CCCCCCCCc1c(CC)nc2ncnn2c1N [BAS 650, 5-ethyl-6-octyl-[1,2,4]triazolo[1,5-a]pyrimidine-7-ylamine]
Attack on Leaves ([4]; BAS 650 (BAS 650 00F 1.2 L/ha) applications AB): 7% | Attack on Leaves ([4]; BAS 650 (BAS 650 00F 1.2 L/ha) applications ABC): 6.2%

COc1cc(C)c(C(=O)c2c(OC)ccc(Br)c2C)c(OC)c1OC [Metrafenone, metrafenone]
Attacked Clusters 6 DAT(5) [5, 20]: 7.9% | Attacked Clusters 15 DAT(6) [5, 20]: 26% | Attacked Clusters 6 DAT(5) [5, 21]: 2.2% | Attacked Clusters 15 DAT(6) [5, 21]: 4.2% | Attack on Plant 35 DAT (Leveillula taurica): 22% | Attack on Plant 42 DAT (Leveillula taurica): 43% | Attack on Leaves 76 DAT (Uncinula necator [6]; [22]): 4.3% | Attack on Leaves 90 DAT (Uncinula necator [6]; [22]): 35% | Attack on Raceme 76 DAT (Uncinula necator [6]; [22]): 8.3% | Attack on Raceme 90 DAT (Uncinula necator [6]; [22]): 43% | Attack on Leaves 76 DAT (Uncinula necator [6]; [23]): 3.0% | Attack on Leaves 90 DAT (Uncinula necator [6]; [23]): 13% | Attack on Raceme 76 DAT (Uncinula necator [6]; [23]): 6.0% | Attack on Raceme 90 DAT (Uncinula necator [6]; [23]): 22% | Attack on Plant 27 DAT (Sphaerotheca fuliginea [7]; [24]): 24% | Attack on Plant 34 DAT (Sphaerotheca fuliginea [7]; [24]): 32% | Attack on Plant 27 DAT (Sphaerotheca fuliginea [7]; [25]): 9.2% | Attack on Plant 34 DAT (Sphaerotheca fuliginea [7]; [25]): 14% | Attack on Leaves (Sphaerotheca fuliginea [8]): 50% | Attack on Leaves (Sphaerotheca fuliginea [9]): 15% | Attack on Raceme 85 DAT (Uncinula necator [10]; [26]): 26% | Attack on Raceme 91 DAT (Uncinula necator [10]; [26]): 32% | Attack on Raceme 85 DAT (Uncinula necator [10]; [27]): 11% | Attack on Raceme 91 DAT (Uncinula necator [10]; [27]): 14% | Attack on clusters 11 DAA (6) (Erysiphe necator): 25%
